Source: publication PMC9108036 (Biomedicine & Pharmacotherapy, 2022)

Tested on: Omicron SARS-CoV-2 lentiviral pseudovirus
Assay: not given
Assay type: cell-based
Settings: not given

SMILES	inhibition of Omicron pseudovirus entry (in words)
CN(C)CCCN1c2ccccc2CCc2ccc(Cl)cc21 [Clomipramine]	enhanced inhibitory effects
COC(=O)C1=C(C)NC(C)=C(C(=O)OCCCN2CCC(c3ccccc3)(c3ccccc3)CC2)[C@@H]1c1cccc([N+](=O)[O-])c1 [Dexniguldipine]	strong inhibition
CSc1ccc2c(c1)N(CCC1CCCCN1C)c1ccccc1S2 (centres unmarked) [Thioridazine]	enhanced inhibitory effects

Same assay, conditions: Omicron pseudovirus, CaCo2 cells

SMILES	inhibition of Omicron pseudovirus entry (in words)
CN(C)CCCN1c2ccccc2Sc2ccc(Cl)cc21 [Chlorpromazine]	enhanced inhibitory effects
CN1CCN(CCCN2c3ccccc3Sc3ccc(C(F)(F)F)cc32)CC1 [Trifluoperazine]	enhanced inhibitory effects

Tested on: not listed separately
Assay: in vitro
Assay type: cell-based
Settings: human

SMILES	viability at 10 µM [%]
CCCCC[C@H](O)/C=C/[C@H]1[C@H](O)CC(=O)[C@@H]1CCCCCCC(=O)O [Alprostadil]	100 ± 2.9
CN(C)CCCN1c2ccccc2Sc2ccc(Cl)cc21 [Chlorpromazine]	88.6 ± 4.3
Nc1nc(Cl)nc2c1ncn2[C@H]1C[C@H](O)[C@@H](CO)O1 [Cladribine]	108 ± 2.7
CC(=O)O[C@@]12CO[C@@H]1C[C@H](O)[C@@]1(C)C(=O)[C@H](O)C3=C(C)[C@@H](OC(=O)[C@H](O)[C@@H](NC(=O)OC(C)(C)C)c4ccccc4)C[C@@](O)([C@@H](OC(=O)c4ccccc4)[C@H]21)C3(C)C [Docetaxel]	80.8 ± 3
Clc1ccc(COC(Cn2ccnc2)c2ccc(Cl)cc2Cl)cc1 (centres unmarked) [Econazole]	88.2 ± 1.8
O=c1[nH]cc(F)c(=O)[nH]1 [Fluorouracil]	97 ± 1.7
